Measurements: article PMC9144433, “The Effect of Standardised Leaf Extracts of Gaultheria procumbens on Multiple Oxidants, Inflammation-Related Enzymes, and Pro-Oxidant and Pro-Inflammatory Functions of Human Neutrophils” (Molecules, 2022)

What was measured:
hyaluronidase (HYAL) = target: T1, hyaluronidase (HYAL); experiment: HYAL inhibition, 96-well plate reader; format: biochemical; conditions: positive control; n = […]
T1 construct: gene SPAM1; reagents from Sigma-Aldrich; bovine testes preparation is usual
Excerpt: HYAL inhibition, 96-well plate reader on hyaluronidase (HYAL)

lipoxygenase (LOX) = target: T2, lipoxygenase (LOX); experiment: LOX inhibition, 96-well plate reader; format: biochemical; conditions: positive control; n = […]
T2 construct: gene LOX1.1; reagents from Sigma-Aldrich; soybean enzyme is usual

| HYAL / IC50 (μg/mL) ^a (hyaluronidase (HYAL)) [µg/mL] | LOX / IC50 (μg/mL) ^a (lipoxygenase (LOX)) [µg/mL] | Structure (SMILES) |
| --- | --- | --- |
| 31.78 ± 1.52 |  | O=c1c(O)c(-c2ccc(O)c(O)c2)oc2cc(O)cc(O)c12 [compound 41, QU] |
| 12.68 ± 1.79 | 91.89 ± 3.95 | COc1ccc2c(c1)c(CC(=O)O)c(C)n2C(=O)c1ccc(Cl)cc1 [IND] |
| 14.07 ± 1.25 | 120.16 ± 4.86 | C[C@@H]1C[C@H]2[C@@H]3CCC4=CC(=O)C=C[C@]4(C)[C@@]3(F)[C@@H](O)C[C@]2(C)[C@@]1(O)C(=O)CO [DEX] |
